Measured values reported in PubChem BioAssay (NCI).
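Cells were grown in 96-well plates and exposed to each compound for 48 hours at five concentrations; endpoints were interpolated linearly between bracketing concentrations, or set to the highest concentration if not reached. TGI: total growth inhibition.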

Columns and labels:
Assay in all cases: DTP human tumour cell line panel, 48 h
[1] = tested on: RXF 393 renal
[2] = tested on: KM12 colon
[3] = tested on: SK-MEL-5 melanoma
[4] = tested on: OVCAR-4 ovarian
[5] = tested on: SN12C renal
[6] = tested on: HT29 colon
[7] = tested on: T-47D breast
[8] = tested on: HCT-116 colon
[9] = tested on: RPMI-8226 leukemia
[10] = tested on: MDA-MB-435
[11] = tested on: U251 CNS
[12] = tested on: HOP-92 NSCLC
[13] = tested on: UO-31 renal
[14] = tested on: OVCAR-3 ovarian
[15] = tested on: UACC-62 melanoma
[16] = tested on: COLO 205 colon
[17] = tested on: NCI-H23 lung
[18] = tested on: NCI-H460 lung
[19] = tested on: HL-60(TB) leukemia
[20] = tested on: SK-MEL-28 melanoma
[21] = tested on: MDA-MB-231 breast
[22] = tested on: HOP-62 NSCLC
[23] = tested on: K-562 leukemia
[24] = tested on: NCI/ADR-RES ovarian
[25] = tested on: A549 NSCLC
[26] = tested on: TK-10 renal
[27] = tested on: IGROV1 ovarian
[28] = tested on: OVCAR-5 ovarian
[29] = tested on: SF-295 CNS
[30] = tested on: SF-539 CNS
[31] = tested on: CCRF-CEM leukemia
[32] = tested on: BT-549 breast
[33] = tested on: MDA-N
[34] = tested on: DU-145 prostate
[35] = tested on: MCF7 breast
[36] = tested on: MALME-3M melanoma
[37] = tested on: UACC-257 melanoma
[38] = tested on: SK-MEL-2 melanoma
[39] = tested on: PC-3 prostate
[40] = tested on: 786-0 renal
[41] = tested on: HCC-2998 colon
[42] = tested on: M14 melanoma
[43] = tested on: ACHN renal
[44] = tested on: LOX IMVI melanoma
[45] = tested on: NCI-H226 lung
[46] = tested on: NCI-H522 lung
[47] = tested on: HS 578T breast
[48] = tested on: EKVX NSCLC
[49] = tested on: SNB-19 CNS
[50] = tested on: MOLT-4 leukemia
[51] = tested on: SK-OV-3 ovarian
[52] = tested on: SF-268 CNS
[53] = tested on: HCT-15 colon
[54] = tested on: SR leukemia
[55] = tested on: SW-620 colon
[56] = tested on: A498 renal
[57] = tested on: OVCAR-8 ovarian
[58] = tested on: CAKI-1 renal
[59] = tested on: SNB-75 CNS

Nc1ncnc2c1ccn2C1OC2COP(=O)(O)OC2C1O (stereo not given)
TGI [1]: 5.02 µM | TGI [2]: 16.5 µM | TGI [3]: 1.59 µM | TGI [4]: 9.6 µM | TGI [5]: 12.7 µM | TGI [6]: 11.7 µM | TGI [7]: 55.3 µM | TGI [8]: 10.4 µM | TGI [9]: > 100 µM | TGI [10]: 2.31 µM | TGI [11]: > 100 µM | TGI [12]: 7.41 µM | TGI [13]: > 100 µM | TGI [14]: > 96.3 µM | TGI [15]: 1.45 µM | TGI [16]: 3.99 µM | TGI [17]: 9.37 µM | TGI [18]: 12.9 µM | TGI [19]: > 23.2 µM | TGI [20]: 14.2 µM | TGI [21]: 12.2 µM | TGI [22]: 11.2 µM | TGI [23]: 19 µM | TGI [24]: > 31.8 µM | TGI [25]: 12.8 µM | TGI [26]: 4.8 µM | TGI [27]: > 31 µM | TGI [28]: 46.9 µM | TGI [29]: 29.5 µM | TGI [30]: 20.2 µM | TGI [31]: 20.2 µM | TGI [32]: 24 µM | TGI [33]: 11.1 µM | TGI [34]: > 100 µM | TGI [35]: > 100 µM | TGI [36]: 1.41 µM | TGI [37]: 9.11 µM | TGI [38]: 5.52 µM | TGI [39]: 3.07 µM | TGI [40]: > 20.9 µM | TGI [41]: 9.45 µM | TGI [42]: 1.54 µM | TGI [43]: 14.2 µM | TGI [44]: 1.34 µM | TGI [45]: 28.5 µM | TGI [46]: 1.07 µM | TGI [47]: > 31 µM | TGI [48]: 57.7 µM | TGI [49]: > 75.9 µM | TGI [50]: 10.9 µM | TGI [51]: 24.5 µM | TGI [52]: 8.06 µM | TGI [53]: 3.11 µM | TGI [54]: 25.6 µM | TGI [55]: > 44.5 µM | TGI [56]: 28.2 µM | TGI [57]: 7.94 µM

NC(=O)c1cc2ccccc2oc1=Nc1ccccc1
TGI [1]: > 100 µM | TGI [2]: > 100 µM | TGI [3]: > 100 µM | TGI [4]: > 100 µM | TGI [5]: > 100 µM | TGI [6]: > 100 µM | TGI [7]: > 100 µM | TGI [8]: > 100 µM | TGI [9]: > 100 µM | TGI [10]: > 100 µM | TGI [11]: > 100 µM | TGI [12]: > 100 µM | TGI [14]: > 100 µM | TGI [15]: > 100 µM | TGI [16]: > 100 µM | TGI [17]: > 100 µM | TGI [18]: > 100 µM | TGI [19]: > 100 µM | TGI [20]: > 100 µM | TGI [21]: > 100 µM | TGI [22]: > 100 µM | TGI [23]: > 100 µM | TGI [24]: > 100 µM | TGI [58]: > 100 µM | TGI [25]: > 100 µM | TGI [27]: > 100 µM | TGI [28]: > 100 µM | TGI [30]: > 100 µM | TGI [31]: > 100 µM | TGI [32]: > 100 µM | TGI [59]: > 100 µM | TGI [33]: > 100 µM | TGI [34]: > 100 µM | TGI [35]: > 100 µM | TGI [36]: > 100 µM | TGI [37]: > 100 µM | TGI [38]: > 100 µM | TGI [39]: > 100 µM | TGI [40]: > 100 µM | TGI [41]: > 100 µM | TGI [42]: > 100 µM | TGI [43]: > 100 µM | TGI [44]: > 100 µM | TGI [45]: > 100 µM | TGI [47]: > 100 µM | TGI [48]: > 100 µM | TGI [49]: > 100 µM | TGI [50]: > 100 µM | TGI [51]: > 100 µM | TGI [52]: > 100 µM | TGI [53]: > 100 µM | TGI [54]: > 100 µM | TGI [55]: > 100 µM | TGI [56]: > 100 µM | TGI [57]: > 100 µM

CC1(C)C(=O)N(O)C(C)(C)N1O
TGI [1]: > 10 µM | TGI [2]: > 10 µM | TGI [3]: > 10 µM | TGI [4]: > 10 µM | TGI [5]: > 10 µM | TGI [6]: > 10 µM | TGI [7]: > 10 µM | TGI [8]: > 10 µM | TGI [9]: > 10 µM | TGI [10]: > 10 µM | TGI [11]: > 10 µM | TGI [12]: > 10 µM | TGI [14]: > 10 µM | TGI [15]: > 10 µM | TGI [16]: > 10 µM | TGI [17]: > 10 µM | TGI [18]: > 10 µM | TGI [19]: > 10 µM | TGI [20]: > 10 µM | TGI [21]: > 10 µM | TGI [22]: > 10 µM | TGI [23]: > 10 µM | TGI [24]: > 10 µM | TGI [58]: > 10 µM | TGI [25]: > 10 µM | TGI [26]: > 10 µM | TGI [27]: > 10 µM | TGI [28]: > 10 µM | TGI [29]: > 10 µM | TGI [30]: > 10 µM | TGI [31]: > 10 µM | TGI [32]: > 10 µM | TGI [59]: > 10 µM | TGI [33]: > 10 µM | TGI [34]: > 10 µM | TGI [35]: > 10 µM | TGI [36]: > 10 µM | TGI [37]: > 10 µM | TGI [38]: > 10 µM | TGI [39]: > 10 µM | TGI [40]: > 10 µM | TGI [41]: > 10 µM | TGI [42]: > 10 µM | TGI [43]: > 10 µM | TGI [44]: > 10 µM | TGI [45]: > 10 µM | TGI [46]: > 10 µM | TGI [47]: > 10 µM | TGI [48]: > 10 µM | TGI [49]: > 10 µM | TGI [50]: > 10 µM | TGI [51]: > 10 µM | TGI [52]: > 10 µM | TGI [53]: > 10 µM | TGI [54]: > 10 µM | TGI [55]: > 10 µM | TGI [56]: > 10 µM | TGI [57]: > 10 µM

COc1cc(OCc2ccc3nc(-c4ccccc4)c(N)nc3c2)cc(OC)c1OC
TGI [1]: 77 µM | TGI [2]: 36.7 µM | TGI [3]: 24 µM | TGI [4]: 34.6 µM | TGI [5]: > 100 µM | TGI [7]: 42.5 µM | TGI [8]: 21.1 µM | TGI [9]: 31.3 µM | TGI [10]: 51.2 µM | TGI [11]: > 100 µM | TGI [12]: 50 µM | TGI [13]: 34.6 µM | TGI [14]: 42.1 µM | TGI [15]: 28.2 µM | TGI [16]: 30.1 µM | TGI [18]: 39.7 µM | TGI [19]: 32.4 µM | TGI [20]: 49 µM | TGI [21]: 68.9 µM | TGI [23]: > 100 µM | TGI [24]: 49.6 µM | TGI [58]: 71.4 µM | TGI [25]: 61.2 µM | TGI [26]: 50.3 µM | TGI [27]: 55.9 µM | TGI [28]: 55.3 µM | TGI [29]: 68.7 µM | TGI [30]: 44.2 µM | TGI [31]: 61.9 µM | TGI [32]: 49 µM | TGI [59]: 59.7 µM | TGI [33]: 28.8 µM | TGI [34]: 77.8 µM | TGI [35]: 56.8 µM | TGI [36]: 32.4 µM | TGI [37]: 49.7 µM | TGI [38]: 43.9 µM | TGI [39]: 45.4 µM | TGI [40]: 81.2 µM | TGI [41]: > 100 µM | TGI [42]: 29.3 µM | TGI [43]: 63.8 µM | TGI [44]: 29.7 µM | TGI [45]: 50.4 µM | TGI [46]: 37.7 µM | TGI [47]: 78.3 µM | TGI [48]: 50.2 µM | TGI [49]: > 100 µM | TGI [50]: 28.8 µM | TGI [52]: > 100 µM | TGI [53]: 39.7 µM | TGI [54]: 43.8 µM | TGI [55]: > 100 µM | TGI [56]: 73.8 µM | TGI [57]: 72.3 µM
